Calls of active or inactive are those of the source. The rule behind the calls is not given here.
What was measured:
[1] = target: T1, Orexin/Hypocretin receptor type 1 (Homo sapiens, UniProt O43613); assay: Inhibition of human orexin-1 receptor expressed in CHO cells assessed as calcium release preincubated for 120 mins followed by addition of orexin-A by fluo-4 AM based-FLIPR analysis; format: functional, cell-based
T1 sequence (O43613 whole entry): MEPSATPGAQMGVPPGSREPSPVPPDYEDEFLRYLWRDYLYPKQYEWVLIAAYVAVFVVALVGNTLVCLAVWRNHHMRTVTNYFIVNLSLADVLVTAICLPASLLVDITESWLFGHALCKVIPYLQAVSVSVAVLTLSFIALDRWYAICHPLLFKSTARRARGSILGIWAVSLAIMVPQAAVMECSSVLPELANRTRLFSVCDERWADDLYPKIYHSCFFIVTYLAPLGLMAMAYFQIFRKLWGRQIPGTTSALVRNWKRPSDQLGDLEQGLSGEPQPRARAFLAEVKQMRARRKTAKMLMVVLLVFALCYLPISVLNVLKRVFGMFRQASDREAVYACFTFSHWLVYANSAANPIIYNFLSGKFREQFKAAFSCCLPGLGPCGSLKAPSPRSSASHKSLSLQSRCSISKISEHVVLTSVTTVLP

[2] = target: T2, Orexin receptor type 2 (Homo sapiens) (UniProt O43614); assay: Inhibition of human orexin-2 receptor expressed in CHO cells assessed as time duration for Kb change preincubated for 120 mins followed by stimulation with orexin-A post compound washout by FLIPR assay; format: cell-based
T2 sequence (whole entry): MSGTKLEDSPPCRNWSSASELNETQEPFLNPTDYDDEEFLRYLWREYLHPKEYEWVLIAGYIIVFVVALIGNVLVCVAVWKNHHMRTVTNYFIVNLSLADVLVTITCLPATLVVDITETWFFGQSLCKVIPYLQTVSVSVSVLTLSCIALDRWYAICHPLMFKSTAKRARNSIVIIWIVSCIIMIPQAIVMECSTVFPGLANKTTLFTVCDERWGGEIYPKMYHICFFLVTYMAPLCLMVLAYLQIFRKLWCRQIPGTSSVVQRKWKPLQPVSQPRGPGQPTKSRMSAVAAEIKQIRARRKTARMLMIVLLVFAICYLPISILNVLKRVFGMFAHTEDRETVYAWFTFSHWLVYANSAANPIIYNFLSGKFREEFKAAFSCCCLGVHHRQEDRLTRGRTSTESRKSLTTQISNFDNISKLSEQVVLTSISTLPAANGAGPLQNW

[3] = tested on: Brain; assay: Free drug level in rat brain; format: ADME, tissue-based; details: in vivo
[4] = Fraction unbound in rat brain; format: ADME, tissue-based
[5] = tested on: Rattus norvegicus; assay: Sleep promoting effect in Wistar rat sleep model at 100 mg/kg, po administered as single dose during first 6 hrs of night active period post dose relative to vehicle control; format: functional, organism-based
[6] = tested on: Rattus norvegicus; assay: Increase in time spent in rapid eye movement sleep in Wistar rat sleep model at 100 mg/kg, po administered as single dose during first 6 hrs of night active period post dose relative to vehicle control; format: functional
[7] = Drug uptake in Wistar rat cerebrospinal fluid at 100 mg/kg, po measured 3 hrs post dose; format: ADME, organism-based; details: read-out: Drug uptake
[8] = target: T3, Orexin receptor type 2 (Homo sapiens, UniProt O43614); assay: Inhibition of human orexin-2 receptor expressed in CHO cells assessed as calcium release preincubated for 120 mins followed by addition of orexin-A by fluo-4 AM based-FLIPR analysis; format: functional, cell-based
T3 sequence (O43614 whole entry): T2 sequence (whole entry)

[9] = Fraction unbound in rat plasma; format: ADME, cell-free
[10] = tested on: Rattus norvegicus; assay: Reduction in home cage activity in Wistar rat sleep model at 100 mg/kg, po administered as single dose during first 6 hrs of night active period post dose relative to vehicle control; format: functional; parameters: scale not given: the % may be the effect or the level left
[11] = target: T4, Orexin/Hypocretin receptor type 1 (Homo sapiens) (UniProt O43613); assay: Insurmountable antagonist activity against human orexin-1 receptor expressed in CHO cells assessed as calcium release at IC50 preincubated for 120 mins followed by addition of orexin-A by Cheng-Prusoff equation analysis; format: functional, cell-based
T4 sequence (whole entry): T1 sequence (O43613 whole entry)

[12] = target: T4, Orexin/Hypocretin receptor type 1 (Homo sapiens); details: CHO
Description: Inhibition of human orexin-1 receptor expressed in CHO cells assessed as occupancy half life preincubated for 120 mins followed by stimulation with orexin-A post compound washout measured at 0 to 30 mins by FLIPR assay

[13] = target: T5, Orexin receptor type 2 (Rattus norvegicus) (UniProt P56719); assay: Insurmountable antagonist activity against rat orexin-2 receptor expressed in CHO cells assessed as calcium release at IC50 preincubated for 120 mins followed by addition of orexin-A by Cheng-Prusoff equation analysis; format: functional, cell-based
T5 sequence (whole entry): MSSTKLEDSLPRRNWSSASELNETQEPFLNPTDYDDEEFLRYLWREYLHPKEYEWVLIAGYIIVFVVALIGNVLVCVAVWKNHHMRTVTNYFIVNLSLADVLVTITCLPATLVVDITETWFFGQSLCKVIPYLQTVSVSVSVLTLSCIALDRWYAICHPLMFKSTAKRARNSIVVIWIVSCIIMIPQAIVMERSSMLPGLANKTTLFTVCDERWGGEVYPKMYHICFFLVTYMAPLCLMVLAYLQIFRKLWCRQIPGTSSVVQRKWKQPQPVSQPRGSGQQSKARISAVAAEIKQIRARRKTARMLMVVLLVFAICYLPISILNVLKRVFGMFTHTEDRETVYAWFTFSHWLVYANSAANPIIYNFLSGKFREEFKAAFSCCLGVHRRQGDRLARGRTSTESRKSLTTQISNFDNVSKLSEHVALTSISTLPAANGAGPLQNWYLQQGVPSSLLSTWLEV

[14] = target: T4, Orexin/Hypocretin receptor type 1 (Homo sapiens); assay: Inhibition of human orexin-1 receptor expressed in CHO cells assessed as time duration for Kb change preincubated for 120 mins followed by stimulation with orexin-A post compound washout by FLIPR assay; format: cell-based
[15] = tested on: Rattus norvegicus; assay: Increase in time spent in quiet wake state in Wistar rat sleep model at 100 mg/kg, po administered as single dose during first 6 hrs of night active period post dose relative to vehicle control; format: functional
[16] = target: T2, Orexin receptor type 2 (Homo sapiens); details: CHO
Description: Inhibition of human orexin-2 receptor expressed in CHO cells assessed as occupancy half life preincubated for 120 mins followed by stimulation with orexin-A post compound washout measured at 0 to 30 mins by FLIPR assay

[17] = tested on: Rattus norvegicus; assay: Reduction in time spent in active wake state in Wistar rat sleep model at 100 mg/kg, po administered as single dose during first 6 hrs of night active period post dose relative to vehicle control; format: functional; parameters: scale not given: the % may be the effect or the level left
[18] = Intrinsic clearance in human liver microsomes at 1 uM; format: ADME; details: read-out: CLH
[19] = Ratio of drug level in brain to plasma of rat; format: ADME; details: brain and plasma, read-out: BPR
[20] = target: T2, Orexin receptor type 2 (Homo sapiens); assay: Competitive antagonist activity against human orexin-2 receptor expressed in CHO cells assessed as shift in orexin-A CRC at IC50 incubated for 120 mins in presence of orexin-A by Cheng-Prusoff equation analysis; format: cell-based
[21] = target: T4, Orexin/Hypocretin receptor type 1 (Homo sapiens); assay: Competitive antagonist activity against human orexin-1 receptor expressed in CHO cells assessed as shift in orexin-A CRC at IC50 incubated for 120 mins in presence of orexin-A by Cheng-Prusoff equation analysis; format: cell-based
[22] = target: T6, Orexin/Hypocretin receptor type 1 (Rattus norvegicus) (UniProt P56718); assay: Insurmountable antagonist activity against rat orexin-1 receptor expressed in CHO cells assessed as calcium release at IC50 preincubated for 120 mins followed by addition of orexin-A by Cheng-Prusoff equation analysis; format: functional, cell-based
T6 sequence (whole entry): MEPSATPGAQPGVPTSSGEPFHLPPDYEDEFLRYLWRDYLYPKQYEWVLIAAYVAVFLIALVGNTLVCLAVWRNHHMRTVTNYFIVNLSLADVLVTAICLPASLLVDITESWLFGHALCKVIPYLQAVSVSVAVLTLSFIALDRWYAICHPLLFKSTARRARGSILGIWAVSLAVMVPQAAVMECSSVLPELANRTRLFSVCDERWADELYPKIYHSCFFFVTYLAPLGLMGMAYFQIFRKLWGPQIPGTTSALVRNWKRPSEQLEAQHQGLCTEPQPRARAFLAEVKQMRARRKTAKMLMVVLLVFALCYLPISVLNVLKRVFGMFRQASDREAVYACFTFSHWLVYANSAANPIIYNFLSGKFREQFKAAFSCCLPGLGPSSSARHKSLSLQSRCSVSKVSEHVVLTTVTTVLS

[23] = target: T2, Orexin receptor type 2 (Homo sapiens); assay: Insurmountable antagonist activity against human orexin-2 receptor expressed in CHO cells assessed as calcium release at IC50 preincubated for 120 mins followed by addition of orexin-A by Cheng-Prusoff equation analysis; format: functional, cell-based
[24] = Intrinsic clearance in rat liver microsomes at 1 uM; format: ADME; details: read-out: CLH
[25] = tested on: Rattus norvegicus; assay: Increase in time spent in non-rapid eye movement sleep in Wistar rat sleep model at 100 mg/kg, po administered as single dose during first 6 hrs of night active period post dose relative to vehicle control; format: functional

IC50 [1]: 11 nM
TIME [2]: 0.333 h
Drug uptake(free) [3]: 60 nM
fraction unbound [4]: 0.04
concentration at 3 h [7]: 0.133 µg/mL
IC50 [8]: 6.6 nM
fraction unbound [9]: 0.027
Kb [11]: 5.3 nM
T1/2 [12]: 1.1 min
Kb [13]: 1.7 nM
TIME [14]: 0.0833 h
T1/2 [16]: 5.4 min
microsomal CLint at 1 µM [18]: 197 µL/min/mg
Kp [19]: 0.68
inhibition [20]: Active
inhibition [21]: Active
Kb [22]: 7.3 nM
Kb [23]: 1.4 nM
microsomal CLint at 1 µM [24]: > 1250 µL/min/mg
Structure (SMILES): COc1ccc(C[C@@H]2CCCN2C(=O)c2nc(C)sc2-c2ccc3c(c2)OCO3)cc1OC
Activity [5]: Active
Activity [6]: 84%
Activity [10]: 47%
Activity [15]: 17%
Activity [17]: -29%
Activity [25]: 18%

— ChEMBL document CHEMBL3739395, “Discovery and optimisation of 1-acyl-2-benzylpyrrolidines as potent dual orexin receptor antagonists” (Medchemcomm, 2015)
